Experimental data reported in the supplement of paper PMC10307832.

Experiments:
Assay in all cases: relative viability (nuclei count vs DMSO), 5 days (fraction); higher = more cells survive
4EGI-1 + Navitoclax = compound: O=C(O)C(Cc1ccccc1[N+](=O)[O-])=NNc1nc(-c2ccc(Cl)c(Cl)c2)cs1 (mixture of isomers) [4EGI-1] + CC1(C)CCC(c2ccc(Cl)cc2)=C(CN2CCN(c3ccc(C(=O)NS(=O)(=O)c4ccc(N[C@H](CCN5CCOCC5)CSc5ccccc5)c(S(=O)(=O)C(F)(F)F)c4)cc3)CC2)C1 [Navitoclax] (partner 0.5 µM)
How it was run: (§1)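 Medians of duplicate plates are given as relative viability. That measure is the nuclei count in treated wells divided by the count in vehicle wells. Counts were taken on 4× images of lung cancer cell lines in 1536-well plates, 5 days after pin-tool dosing the day after seeding with one drug alone or a fixed anchor-drug dose plus five library-drug doses (not always all listed) in √10 steps.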

XMD8-85 + Trametinib = compound: CN1CCN(CC1)C2=CC(=C(C=C2)NC3=NC=C4C(=N3)N(C5=CC=CC=C5C(=O)N4C)C)OC [XMD8-85] + CC(=O)Nc1cccc(-n2c(=O)n(C3CC3)c(=O)c3c(Nc4ccc(I)cc4F)n(C)c(=O)c(C)c32)c1 [Trametinib] (partner 0.02 µM)
How it was run: as §1

XMD8-85 + Decitabine = compound: CN1CCN(CC1)C2=CC(=C(C=C2)NC3=NC=C4C(=N3)N(C5=CC=CC=C5C(=O)N4C)C)OC [XMD8-85] + Nc1ncn([C@H]2C[C@H](O)[C@@H](CO)O2)c(=O)n1 [Decitabine] (partner 2 µM)
How it was run: as §1

XMD8-85 + Phenformin = compound: CN1CCN(CC1)C2=CC(=C(C=C2)NC3=NC=C4C(=N3)N(C5=CC=CC=C5C(=O)N4C)C)OC [XMD8-85] + N=C(N)NC(=N)NCCc1ccccc1 [Phenformin] (partner 250 µM)
How it was run: as §1

| Cell Line | relative viability (4EGI-1 + Navitoclax; first compound 0.5 µM) | relative viability (4EGI-1 + Navitoclax; first compound 1.581 µM) | relative viability (4EGI-1 + Navitoclax; first compound 5 µM) | relative viability (4EGI-1 + Navitoclax; first compound 15.81 µM) | relative viability (4EGI-1 + Navitoclax; first compound 50 µM) | relative viability (XMD8-85 + Trametinib; first compound 0.08 µM) | relative viability (XMD8-85 + Trametinib; first compound 0.253 µM) | relative viability (XMD8-85 + Trametinib; first compound 0.8 µM) | relative viability (XMD8-85 + Trametinib; first compound 2.53 µM) | relative viability (XMD8-85 + Trametinib; first compound 8 µM) | relative viability (XMD8-85 + Decitabine; first compound 0.08 µM) | relative viability (XMD8-85 + Decitabine; first compound 0.253 µM) | relative viability (XMD8-85 + Decitabine; first compound 0.8 µM) | relative viability (XMD8-85 + Decitabine; first compound 2.53 µM) | relative viability (XMD8-85 + Decitabine; first compound 8 µM) | relative viability (XMD8-85 + Phenformin; first compound 0.08 µM) | relative viability (XMD8-85 + Phenformin; first compound 0.253 µM) | relative viability (XMD8-85 + Phenformin; first compound 0.8 µM) | relative viability (XMD8-85 + Phenformin; first compound 2.53 µM) | relative viability (XMD8-85 + Phenformin; first compound 8 µM) |
| --- | --- | --- | --- | --- | --- | --- | --- | --- | --- | --- | --- | --- | --- | --- | --- | --- | --- | --- | --- | --- |
| 201T | 1.25 | 1.21 | 1.2 | 1.19 | 1.19 | 0.718 | 0.746 | 0.738 | 0.681 | 0.617 | 0.867 | 0.865 | 0.883 | 0.82 | 0.689 | 0.437 | 0.467 | 0.444 | 0.469 | 0.447 |
| A549 | 1.29 | 1.2 | 1.24 | 1.17 | 0.217 |  |  |  |  |  | 0.296 | 0.252 | 0.237 | 0.369 | 0.384 | 0.0975 | 0.198 | 0.149 | 0.274 | 0.193 |
| A-427 | 0.998 | 0.823 | 0.815 | 0.687 | 0.928 | 0.755 | 0.731 | 0.697 | 0.714 | 0.631 | 0.601 | 0.596 | 0.546 | 0.573 | 0.539 | 0.278 | 0.268 | 0.346 | 0.335 | 0.208 |
| ABC-1 |  |  |  |  |  |  |  |  |  |  | 1.42 | 1.09 | 1.49 | 1.11 | 0.745 | 0.221 | 0.245 | 0.248 | 0.234 | 0.229 |
| BEN | 0.0672 | 0.0661 | 0.0652 | 0.0675 | 0.0686 | 0.866 | 1 | 0.983 | 0.829 | 0.681 | 0.761 | 0.671 | 0.757 | 0.66 | 0.483 | 0.275 | 0.266 | 0.267 | 0.306 | 0.258 |
| CAL-12T | 1.1 |  | 1.17 | 1.23 | 0.861 | 0.32 | 0.404 |  | 0.302 | 0.379 |  |  |  |  |  | 0.575 | 0.528 | 0.537 | 0.517 | 0.369 |
| COR-L23 | 1.22 | 0.802 | 1.1 | 0.691 | 0.147 | 0.488 | 0.548 | 0.651 | 0.548 | 0.333 | 0.513 | 0.397 | 0.506 | 0.458 | 0.409 | 0.384 | 0.452 | 0.484 | 0.476 | 0.366 |
| COR-L 105 | 0.618 | 0.668 | 1.02 | 0.597 | 0.43 | 0.432 | 0.465 | 0.433 | 0.506 | 0.437 |  | 0.731 | 0.7 | 0.537 | 0.466 | 0.406 | 0.445 | 0.453 | 0.432 | 0.248 |
| Calu-6 | 0.909 | 0.759 | 1.01 | 0.847 | 0.213 |  |  |  |  |  |  |  |  |  |  |  |  |  |  |  |
| ChaGo-K-1 | 0.775 |  | 1.1 | 0.773 | 0.247 | 0.926 | 0.908 | 0.944 | 0.962 | 0.668 | 0.553 | 0.521 | 0.551 | 0.525 | 0.45 | 0.421 | 0.533 | 0.493 | 0.512 |  |
| EBC-1 | 0.525 | 0.402 | 0.624 | 0.308 | 0.142 |  |  |  |  |  |  |  |  |  |  |  |  |  |  |  |
| EKVX | 1.09 | 0.77 | 0.911 | 0.803 | 0.603 | 0.56 | 0.327 | 0.437 | 0.47 | 0.374 | 0.536 | 0.32 | 0.33 | 0.61 | 0.328 | 0.226 | 0.218 | 0.228 | 0.245 | 0.202 |
| EMC-BAC-2 | 1.16 | 1.2 | 1.05 | 1.08 | 1.09 | 0.901 | 0.879 | 0.895 | 0.828 | 0.67 | 0.873 | 0.961 |  | 1.05 | 0.887 | 0.475 | 0.518 |  | 0.517 | 0.429 |
| EPLC-272H | 1.31 | 0.938 | 1.35 | 0.951 | 0.969 | 0.276 | 0.271 | 0.272 | 0.313 | 0.251 | 0.347 | 0.36 | 0.314 | 0.294 | 0.305 | 0.281 | 0.272 | 0.318 | 0.358 | 0.272 |
| H3255 | 0.587 | 0.477 | 0.557 | 0.137 | 0.368 | 0.576 | 0.593 | 0.465 | 0.554 | 0.373 | 0.838 | 0.682 | 0.977 | 0.316 | 0.358 | 0.401 | 0.373 | 0.339 | 0.726 |  |
| HARA | 1.15 | 1.1 | 1.12 | 1.15 | 0.672 | 0.9 | 0.78 | 0.578 | 0.21 | 0.33 | 0.657 | 0.647 | 0.407 | 0.659 | 0.416 | 0.455 | 0.515 | 0.427 | 0.42 | 0.26 |
| HCC-15 | 0.797 | 0.781 | 0.744 | 0.685 | 0.494 | 0.396 | 0.315 | 0.408 | 0.408 | 0.287 | 0.537 | 0.642 | 0.782 | 0.749 | 0.517 | 0.465 | 0.415 | 0.451 | 0.468 | 0.265 |
| HCC-44 | 0.957 | 0.596 | 0.949 | 0.958 | 0.35 | 1.11 | 1.12 | 1.12 | 1.04 | 1.01 | 0.976 | 0.979 | 0.922 | 0.973 | 0.887 | 0.241 | 0.267 | 0.184 | 0.205 | 0.108 |
